Measurements published in the supplement of paper PMC10307832.

Key:
Assay in all cases: relative viability (nuclei count vs DMSO), 5 days (fraction); higher = more cells survive
[1] = compound: CO[C@@H]1[C@H](N(C)C(=O)c2ccccc2)C[C@H]2O[C@]1(C)n1c3ccccc3c3c4c(c5c6ccccc6n2c5c31)C(=O)NC4 [Midostaurin] + CS(=O)(=O)N1CCN(Cc2cc3nc(-c4cccc5[nH]ncc45)nc(N4CCOCC4)c3s2)CC1 [Pictilisib] (partner 1 µM)
Method in brief: (§1)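 Lung cancer cell lines, seeded in 1536-well plates, were treated the following day by pin tool with a single drug or with five library-drug doses (not always all listed) in √10 steps on top of a fixed anchor-drug dose. Cells were fixed and nuclei stained in one step after 5 days, and nuclei were counted. Relative viability is the nuclei count for treated wells divided by that for vehicle wells, reported as medians of duplicate plates.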

[2] = compound: CO[C@@H]1[C@H](N(C)C(=O)c2ccccc2)C[C@H]2O[C@]1(C)n1c3ccccc3c3c4c(c5c6ccccc6n2c5c31)C(=O)NC4 [Midostaurin] + Cc1cc(Nc2cc(N3CCN(C)CC3)nc(Sc3ccc(NC(=O)C4CC4)cc3)n2)n[nH]1 [Tozasertib] (partner 0.1 µM)
Method in brief: as §1

[3] = compound: CO[C@@H]1[C@H](N(C)C(=O)c2ccccc2)C[C@H]2O[C@]1(C)n1c3ccccc3c3c4c(c5c6ccccc6n2c5c31)C(=O)NC4 [Midostaurin] + C[C@]1(O)C[C@@H](c2nc(-c3ccc4ccc(-c5ccccc5)nc4c3)c3c(N)nccn32)C1 [Linsitinib] (partner 1 µM)
Method in brief: as §1

[4] = compound: CO[C@@H]1[C@H](N(C)C(=O)c2ccccc2)C[C@H]2O[C@]1(C)n1c3ccccc3c3c4c(c5c6ccccc6n2c5c31)C(=O)NC4 [Midostaurin] + COc1cccc2cc(-c3nc([C@H]4CC[C@H](C(=O)O)CC4)n4ncnc(N)c34)[nH]c12 [OSI-027] (partner 0.5 µM)
Method in brief: as §1

[5] = compound: CO[C@@H]1[C@H](N(C)C(=O)c2ccccc2)C[C@H]2O[C@]1(C)n1c3ccccc3c3c4c(c5c6ccccc6n2c5c31)C(=O)NC4 [Midostaurin] + C[C@@H](Oc1cc(-c2cnn(C3CCNCC3)c2)cnc1N)c1c(Cl)ccc(F)c1Cl [Crizotinib] (partner 1 µM)
Method in brief: as §1

| Cell Line | relative viability ([1]; first compound 0.01 µM) | relative viability ([1]; first compound 0.03162 µM) | relative viability ([1]; first compound 0.1 µM) | relative viability ([1]; first compound 0.3162 µM) | relative viability ([2]; first compound 0.01 µM) | relative viability ([2]; first compound 0.03162 µM) | relative viability ([2]; first compound 0.1 µM) | relative viability ([2]; first compound 0.3162 µM) | relative viability ([3]; first compound 0.01 µM) | relative viability ([3]; first compound 0.03162 µM) | relative viability ([3]; first compound 0.1 µM) | relative viability ([3]; first compound 0.3162 µM) | relative viability ([4]; first compound 0.01 µM) | relative viability ([4]; first compound 0.03162 µM) | relative viability ([4]; first compound 0.1 µM) | relative viability ([4]; first compound 0.3162 µM) | relative viability ([5]; first compound 0.01 µM) | relative viability ([5]; first compound 0.03162 µM) | relative viability ([5]; first compound 0.1 µM) | relative viability ([5]; first compound 0.3162 µM) |
| --- | --- | --- | --- | --- | --- | --- | --- | --- | --- | --- | --- | --- | --- | --- | --- | --- | --- | --- | --- | --- |
| 201T | 0.707 | 0.571 | 0.659 | 0.722 | 0.974 | 0.913 | 0.915 | 0.891 | 1.05 | 1 | 1.07 | 1.04 | 0.725 | 0.787 | 0.751 | 0.818 | 1.07 | 1.01 | 1.01 | 1.05 |
| A549 | 0.549 | 0.446 | 0.483 | 0.224 | – | – | – | – | 0.609 | 0.59 | 0.511 | 0.423 | – | – | – | – | 0.796 | 0.665 | 0.589 | 0.26 |
| A-427 | 0.75 | 0.614 | 0.702 | 0.578 | 0.232 | 0.215 | 0.193 | 0.172 | 1.14 | 1.08 | 1.09 | 1.09 | 0.449 | 0.467 | 0.434 | 0.512 | 0.949 | 0.794 | 0.735 | 0.707 |
| ABC-1 | 0.795 | 0.639 | 0.654 | 0.775 | 0.146 | 0.191 | 0.174 | 0.201 | 0.854 | 0.546 | 0.628 | 0.727 | 0.488 | 0.536 | 0.574 | 0.521 | 0.981 | 1.28 | 1.12 | 0.582 |
| BEN | 0.65 | 0.584 | 0.608 | 0.652 | 0.501 | 0.551 | 0.401 | 0.459 | 0.926 | 0.905 | 1.02 | 0.978 | 0.324 | 0.273 | 0.267 | 0.32 | 1.12 | 0.889 | 1.17 | 0.935 |
| CAL-12T | 0.457 | 0.417 | 0.334 | 0.413 | 0.345 | 0.27 | 0.266 | 0.215 | 0.721 | 0.672 | 0.808 | 0.676 | 0.779 | 0.475 | 0.531 | 0.307 | 0.616 | 0.572 | 0.646 | 0.251 |
| COR-L23 | 0.743 | 0.734 | 0.752 | 0.603 | 0.204 | 0.198 | 0.166 | 0.152 | 0.863 | 0.802 | 0.764 | 0.764 | 0.706 | 0.681 | 0.795 | 0.802 | 0.653 | 0.633 | 0.541 | 0.464 |
| COR-L 105 | 0.36 | 0.453 | 0.337 | 0.34 | 0.404 | 0.356 | 0.341 | 0.313 | 0.818 | 0.922 | 0.766 | 0.727 | 0.793 | 0.548 | 0.607 | 0.551 | 0.835 | 0.738 | 0.692 | 0.698 |
| Calu-6 | 0.876 | 0.837 | 0.937 | 0.771 | – | – | – | – | 0.946 | 0.889 | 1 | 0.922 | – | – | – | – | 0.685 | 0.768 | 0.859 | 0.617 |
| ChaGo-K-1 | 0.688 | 1.24 | 0.712 | 1.1 | 0.312 | 0.214 | 0.229 | 0.219 | – | – | – | – | 0.645 | 0.737 | 0.671 | 0.599 | 1.09 | 1.15 | 1.05 | 1.03 |
| EBC-1 | 0.504 | 0.272 | 0.294 | 0.196 | – | – | – | – | 0.901 | 0.735 | 0.873 | 0.24 | – | – | – | – | 0.164 | 0.231 | 0.197 | 0.2 |
| EKVX | 0.487 | 0.367 | 0.473 | 0.483 | 0.369 | 0.414 | 0.366 | 0.343 | 0.953 | 1.03 | 0.943 | 0.892 | 0.786 | 0.616 | 0.674 | 0.657 | 1.07 | 0.988 | 0.868 | 0.929 |
| EMC-BAC-2 | 0.559 | 0.454 | 0.494 | 0.475 | 0.267 | 0.296 | 0.243 | 0.273 | 0.84 | 0.777 | 0.669 | 0.765 | 0.346 | 0.31 | 0.336 | 0.218 | 0.704 | 0.754 | 0.647 | 0.696 |
| EPLC-272H | 0.338 | 0.305 | 0.295 | 0.298 | 0.261 | – | 0.186 | 0.311 | 1.08 | 1.11 | 1.17 | 1.22 | 0.301 | – | 0.289 | 0.305 | 0.875 | 0.998 | 1.07 | 0.926 |
| H3255 | 0.503 | 0.487 | 0.471 | 0.459 | 0.624 | 0.635 | 0.61 | 0.695 | 0.948 | 0.875 | 0.953 | 1 | 0.592 | 0.512 | 0.622 | 0.593 | 0.829 | 0.718 | 0.937 | 0.892 |
| HARA | 0.469 | 0.416 | 0.295 | 0.333 | 0.142 | 0.0861 | 0.0946 | 0.0968 | 0.936 | 0.979 | 0.877 | 0.969 | 0.672 | 0.4 | 0.516 | 0.757 | 0.902 | 0.977 | 0.86 | 0.958 |
